For this assay, the system named is V23 1322 Burkholderia cepacia. Put plainly: MIC assay, CAMHB with alginate oligomer, no visible growth. Type of assay: cell-based. As to conditions: Table 5, V23 MDR Burk cep.

In brackets after ≈: the same amount, converted by molar mass. Marks after values point to notes of the source that are not given here.

With `CC1(C)C[C@@H]1C(=O)N/C(=C\CCCCSC[C@H](N)C(=O)O)C(=O)O` [Primaxin, Imipenem/cilastatin], the MIC reads like this: (Burkholderia cepacia, OligoCF-5/20 0G) 32 µg/mL (≈ 89.3 µM); (OligoCF-5/20 +2% G) 32 µg/mL (≈ 89.3 µM); (OligoCF-5/20 +6% G) 32 µg/mL (≈ 89.3 µM); (OligoCF-5/20 +10% G) 8^† μg/ml.

In general, MIC refers to the lowest concentration that inhibits growth of the organism. A lower MIC goes with a more susceptible organism.
